Experimental data taken from patent US7452865B2, “Antagonistic analogs of GH RH (2003)” (The Administrare's of the Tulane Educational Fund, priority 2004, dated 2008).
Marks after values point to notes of the source that are not given here. Square brackets hold non-standard residues; d marks the D form. Peptide text beside a SMILES is read from it. * marks the point of attachment. Phe(4-Cl) = N[C@@H](Cc1ccc(Cl)cc1)C(=O)O; Dip = N[C@H](C(=O)O)C(c1ccccc1)c1ccccc1; hArg = N=C(N)NCCCC[C@H](N)C(=O)O; Nle = CCCC[C@H](N)C(=O)O; Abu = CC[C@H](N)C(=O)O; PhAc = O=C(Cc1ccccc1)*

Experiments:
[1] = system: hGH-RH(1-29)NH2 induced GH release; test: Inhibition of GH release in superfused rat pituitary system; format: cell-based; settings: for GH response (% of control) 0 min / GH response (% of control) 30 min / GH response (% of control) 60 min / GH response (% of control) 90 min / GH response (% of control) 120 min: antagonist 30 nM; for GH response (% of control) 0 min: 1 nM hGH-RH(1-29)NH2 at 0 min; for GH response (% of control) 30 min: 1 nM hGH-RH(1-29)NH2 at 30 min; for GH response (% of control) 60 min: 1 nM hGH-RH(1-29)NH2 at 60 min; for GH response (% of control) 90 min: 1 nM hGH-RH(1-29)NH2 at 90 min; for GH response (% of control) 120 min: 1 nM hGH-RH(1-29)NH2 at 120 min; for endocrine antagonistic potency: inhibition of the GH release stimulated by hGH-RH(1-29)NH2 (in words): general statement, in vitro and in vivo
Summary of the method: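 GH output was quantified by double-antibody RIA in superfusates of rat pituitary cells. Peptides were applied for 9 min at various concentrations before a 3-min 1 nM hGH-RH(1-29)NH2 pulse, with further pulses 30–120 min later; net integral responses given as percent of the original response.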

[2] = system: GH-RH receptor isoforms on membrane fractions of human PC-3 prostate tumors; format: binding; settings: general statement
From the text: Ligand competition assays with ^125I-labeled GH-RH antagonist JV-1-42 were used to determine the binding affinities of GH-RH analogs to the GH-RH receptor isoforms on membrane fractions of human PC-3 prostate tumors. The methods used have been described in detail (Halmos G, Schally A V, Varga J L, Plonowski A, Rekasi Z, Czompoly T, Proc Natl Acad Sci USA 97: 10555-10560, 2000; Halmos G, Schally A V, Czompoly T, Krupa M, Varga J L, Rekasi Z, J Clin Endocrinol Metab 87: 4707-4714, 2002), hereby incorporated by reference. Briefly, radioiodinated derivatives of JV-142 are prepared by the chloramine-T method. PC-3 tumors, grown as xenografts in nude mice, are used to prepare crude membranes. PC-3 membrane homogenates are incubated with [^125I]JV-142 and increasing concentrations (10^−12 to 10^−6 M) of nonradioactive antagonist peptides as competitors. The pellet is separated by centrifugation and counted for radioactivity in a gamma-counter. The final binding affinities are estimated by K1 (dissociation constant of the inhibitor-receptor complex) and are determined by the Ligand PC and McPherson computer programs of Munson and Rodbard (P. J. Munson and D. Rodbard, Anal. Biochem. […]: 220-239, 1980). Relative affinities (R.A.) compared to reference peptides such as JV-1-36 or JV-1-38, are calculated as the ratio of K1 of the reference peptide to the K, of the tested GH-RH antagonist.

[3] = system: PC-3 human prostate cancer xenografts; test: PC-3 xenografts in nude mice, Experiment 3: tumor growth; format: in vivo; settings: for antitumor effect on PC-3 tumors (in words): 10 μg/day; for Tumor volume (mm^3) Final / Tumor volume doubling time / Tumor weight / Tumor volume Final (% inhibition) / Tumor weight (% inhibition): 10 μg/day s.c., 28 days; for Tumor volume Final (% inhibition) / Tumor weight (% inhibition): vs control; for Tumor volume (mm^3) Initial: at start of treatment
Method: Male nude mice were implanted s.c. with 3 mm^3 pieces of PC-3 human hormone-independent prostate cancer tissue on both flanks. When tumors reached a volume of approximately 65 mm^3, the mice were divided into 7 experimental groups with 8 to 9 animals in each group and received single daily injections for 28 days as follows: 1. Control (vehicle solution); 2. JV-1-38 (10 μg/day s.c.); 3. Peptide 35 (10 μg/day s.c.); 4. Peptide 36 (10 μg/day s.c.); 5. Peptide 37 (10 μd/day s.c.); 6. Peptide 39 (10 μg/day s.c.); 7. Peptide 41 (10 μg/day s.c.). Tumor volumes were measured twice a week. The experiment was ended on day 28 by sacrificing the mice under Isofurane anesthesia. Resulting tumors were cleaned, weighed, and snapfrozen until further analyses. Trunk blood was collected from the abdominal aorta and serum was separated for RIA measurement of IGF-I. Statistical analyses of the measurement results were done by ANOVA followed by Fisher test; data are presented as the means±S.E.

| Compound | GH response (% of control) 0 min [1] | GH response (% of control) 30 min [1] | GH response (% of control) 60 min [1] | GH response (% of control) 90 min [1] | GH response (% of control) 120 min [1] | binding affinities to the tumoral receptors for GH-RH (in words) [2] | antitumor effect on PC-3 tumors (in words) [3] | Tumor volume (mm^3) Final [3] | Tumor volume doubling time [3] | Tumor weight [3] | Tumor volume Final (% inhibition) [3] | Tumor weight (% inhibition) [3] | Tumor volume (mm^3) Initial [3] | endocrine antagonistic potency: inhibition of the GH release stimulated by hGH-RH(1-29)NH2 (in words) [1] |
| --- | --- | --- | --- | --- | --- | --- | --- | --- | --- | --- | --- | --- | --- | --- |
| CCCC[C@H](NC(=O)[C@@H](NC(=O)[C@H](CC(=O)O)NC(=O)[C@H](CCC(N)=O)NC(=O)[C@H](CC(C)C)NC(=O)[C@H](CC(C)C)NC(=O)[C@H](CCCCN)NC(=O)[C@H](CCCNC(=N)N)NC(=O)[C@H](C)NC(=O)[C@H](CO)NC(=O)[C@H](CC(C)C)NC(=O)[C@H](CCC(N)=O)NC(=O)[C@H](CC)NC(=O)[C@H](CC(C)C)NC(=O)[C@@H](NC(=O)[C@H](CCCCN)NC(=O)[C@H](CCCNC(=N)N)NC(=O)[C@@H](NC(=O)[C@H](CCCCNC(=N)N)NC(=O)[C@H](CC(N)=O)NC(=O)[C@@H](NC(=O)[C@H](Cc1ccc(Cl)cc1)NC(=O)[C@@H](NC(=O)[C@H](C)NC(=O)[C@H](CC(=O)O)NC(=O)[C@@H](CCCNC(=N)N)NC(=O)[C@H](Cc1ccc(O)cc1)NC(=O)Cc1ccccc1)[C@@H](C)CC)[C@@H](C)O)C(c1ccccc1)c1ccccc1)C(C)C)[C@@H](C)CC)C(=O)N[C@H](CCCNC(=N)N)C(=O)N[C@@H](CCCCNC(=N)N)C(N)=O [Peptide 36, [PhAc-Tyr^1, D-Arg^2, Phe(pCl)^6, Har^9, Dip^10, Abu^15, Nle^27, D-Arg^28, Har^29]hGH-RH(1-29)NH2] (PhAc-Y[dR]DAI[Phe(4-Cl)]TN[hArg][Dip]RKVL[Abu]QLSARKLLQDI[Nle][dR][hArg]-NH2) | 104 % of control | 90 % of control | 112 % of control | 97 % of control | 120 % of control | extremely high binding affinities | more potent antitumor effect than reference peptide JV-1-38 | 214 ± 72.6** mm^3 | 18.7 ± 3.83 days | 361 ± 89.6 mg | (76%) | (48%) | 68.0 ± 11.7 mm^3 | – |
| CCCC[C@H](NC(=O)[C@@H](NC(=O)[C@H](CC(=O)O)NC(=O)[C@H](CCC(N)=O)NC(=O)[C@H](CC(C)C)NC(=O)[C@H](CC(C)C)NC(=O)[C@H](CCCCN)NC(=O)[C@H](CCCNC(=N)N)NC(=O)[C@H](C)NC(=O)[C@H](CO)NC(=O)[C@H](CC(C)C)NC(=O)[C@H](CCC(N)=O)NC(=O)[C@H](CC)NC(=O)[C@H](CC(C)C)NC(=O)[C@@H](NC(=O)[C@H](CCCCN)NC(=O)[C@H](CCCNC(=N)N)NC(=O)[C@H](Cc1ccc(OCC)cc1)NC(=O)[C@H](CCCCNC(=N)N)NC(=O)[C@H](CC(N)=O)NC(=O)[C@@H](NC(=O)[C@H](Cc1ccc(Cl)cc1)NC(=O)[C@@H](NC(=O)[C@H](C)NC(=O)[C@H](CC(=O)O)NC(=O)[C@@H](CCCNC(=N)N)NC(=O)[C@H](Cc1ccc(O)cc1)NC(=O)Cc1ccccc1)[C@@H](C)CC)[C@@H](C)O)C(C)C)[C@@H](C)CC)C(=O)N[C@H](CCCNC(=N)N)C(=O)N[C@@H](CCCCNC(=N)N)C(N)=O [Peptide 41, [PhAc-Tyr^1, D-Arg^2, Phe(pCl)^6, Har^9, Tyr(Et)^10, Abu^15, Nle^27, D-Arg^28, Har^29]hGH-RH(1-29)NH2] (PhAc-Y[dR]DAI[Phe(4-Cl)]TN[hArg]Y(Et)RKVL[Abu]QLSARKLLQDI[Nle][dR][hArg]-NH2) | 47 % of control | 16 % of control | 14 % of control | 15 % of control | 16 % of control | extremely high binding affinities | – | 341 ± 107* mm^3 | 28.2 ± 9.85 days | 579 ± 188 mg | (54%) | (17%) | 66.7 ± 12.5 mm^3 | high endocrine antagonistic potencies |
| CCCC[C@H](NC(=O)[C@@H](NC(=O)[C@H](CC(=O)O)NC(=O)[C@H](CCC(N)=O)NC(=O)[C@H](CC(C)C)NC(=O)[C@H](CC(C)C)NC(=O)[C@H](CCCCN)NC(=O)[C@H](CCCNC(=N)N)NC(=O)[C@H](C)NC(=O)[C@H](CO)NC(=O)[C@H](CC(C)C)NC(=O)[C@H](CCC(N)=O)NC(=O)[C@H](CC)NC(=O)[C@H](CC(C)C)NC(=O)[C@@H](NC(=O)[C@H](CCCCN)NC(=O)[C@H](CCCNC(=N)N)NC(=O)[C@H](Cc1ccc(OC)cc1)NC(=O)[C@H](Cc1c[nH]cn1)NC(=O)[C@H](CC(N)=O)NC(=O)[C@@H](NC(=O)[C@H](Cc1ccc(Cl)cc1)NC(=O)[C@@H](NC(=O)[C@H](C)NC(=O)[C@H](CC(=O)O)NC(=O)[C@@H](CCCNC(=N)N)NC(=O)[C@H](Cc1ccc(O)cc1)NC(=O)Cc1ccccc1)[C@@H](C)CC)[C@@H](C)O)C(C)C)[C@@H](C)CC)C(=O)N[C@H](CCCNC(=N)N)C(=O)N[C@@H](CCCCNC(=N)N)C(N)=O [Peptide 69, [PhAc-Tyr^1, D-Arg^2, Phe(pCl)^6, His^9, Tyr(Me)^10, Abu^15, Nle^27, D-Arg^28, Har^29]hGH-RH(1-29)NH2] (PhAc-Y[dR]DAI[Phe(4-Cl)]TNHY(Me)RKVL[Abu]QLSARKLLQDI[Nle][dR][hArg]-NH2) | 9 % of control | 12 % of control | 18 % of control | 18 % of control | 25 % of control | extremely high binding affinities | – | – | – | – | – | – | – | high endocrine antagonistic potencies |
| [PhAc-Tyr^1, D-Arg^2, Phe(pCl)^6, Har^9, 2-Nal^10, Abu^15, Nle^27, D-Arg^28, Har^29]hGH-RH(1-29)NH2 [Peptide 35] | 91 % of control | 57 % of control | 80 % of control | 66 % of control | 72 % of control | extremely high binding affinities | more potent antitumor effect than reference peptide JV-1-38 | 261 ± 52.9** mm^3 | 17.0 ± 2.32 days | 286 ± 58.9 mg | (68%) | (59%) | 65.7 ± 11.3 mm^3 | – |
| [PhAc-Tyr^1, D-Arg^2, Phe(pCl)^6, Har^9, Phe(pNO2)^10, Abu^15, Nle^27, D-Arg^28, Har^29]hGH-RH(1-29)NH2 [Peptide 39] | 63 % of control | 54 % of control | 36 % of control | 37 % of control | 36 % of control | extremely high binding affinities | more potent antitumor effect than reference peptide JV-1-38 | 271 ± 109** mm^3 | 19.6 ± 2.10 days | 247 ± 55.4 mg | (66%) | (65%) | 66.7 ± 11.2 mm^3 | – |
